Measurements taken from patent US20110117554A1, “Formamide-containing mixtures for detecting nucleic acids” (priority 2009, published 2011).

Assay: Melting temperatures of 20mer nucleic acid duplexes in formamide-water mixtures
Format: physicochemical
Conditions: for Melting Temperatures in Formamide: 1.5 μM single strand, 100 mM NaCl, 10 mM K-phosphate pH 7, 0.1 mM EDTA
Procedure: A mismatch in 50% formamide in the DNA strand lowers the melting temperature of the duplex containing LNA-8 from 72 to 66 to 62° C.
As the results in the Tables show, useful melting temperatures are obtained when the oligonucleotides bound in duplex contain at least 15 nucleotide units that have 2′-OMe ribonucleotides as their building blocks. Comparably useful melting temperatures are obtained when the oligonucleotides contain locked nucleic acid (LNA) carbohydrate analogs, as described in [Koshkin et al., 1998]. The data in the Tables also makes clear that the binding between two complementary DNA strands of this length is not useful in 50% formamide, as it is below 30° C. at 50% formamide.

| Substance | Tm (Stability of Duplexes in Formamide and Water) (0 % formamide (Table 3)) [°C] | Melting Temperatures in Formamide (0 percent formamide) [°C] | Tm (Stability of Duplexes in Formamide and Water) (25 % formamide (Table 3)) [°C] | Melting Temperatures in Formamide (25 percent formamide) [°C] | Tm (Stability of Duplexes in Formamide and Water) (50 % formamide (Table 3)) [°C] | Melting Temperatures in Formamide (50 percent formamide) [°C] | Tm (Stability of Duplexes in Formamide and Water) (70 % formamide (Table 3)) [°C] | Tm (Stability of Duplexes in Formamide and Water) (70 % formamide (Table 3), listed as model 20 mer) [°C] | Tm (Stability of Duplexes in Formamide and Water) (90 % formamide (Table 3)) [°C] |
| --- | --- | --- | --- | --- | --- | --- | --- | --- | --- |
| DNA:DNA: 20mer DNA duplex of strand-1 5′-CTTCAGGTACTGAGTCAAGC-3′ (SEQ ID NO 3) and strand-2 (SEQ ID NO 4) (chain 1 CTTCAGGTACTGAGTCAAGC; chain 2 GCTTGACTCAGTACCTGAAG; DNA, backbone and methylation of C not given here) | 61 | 62 | 44 | 46 | 28 | 29 | <20 | ≤ 20 | – |
| RNA:RNA: 20mer RNA duplex 5′-CUUCAGGUACUGAGUCAAGC-3′ (SEQ ID NO 1) with 3′-GAAGUCCAUGACUCAGUUCG-5′ (SEQ ID NO 2) (chain 2 GCUUGACUCAGUACCUGAAG; RNA, backbone not given here) | 73 | 73 | 60 | 61 | 48 | 49 | 40 | – | <25 |
